Data published in patent US8044200B2, “Synthesis and purification of pteroic acid and conjugates thereof” (Endocyte, Inc., priority 2005, dated 2011).

Test system: M109 cells
Test: Effect of isolated folate-fluorescein conjugates on growth of solid tumors (subcutaneous M109 tumors in fluorescein-immunized mice)
Format: in vivo
Conditions: female Balb/c mice preimmunized with KLH-fluorescein; s.c. M109 tumor; 500, 2000 or 5000 nmol/kg i.p., days 1-19; in combination with IL-2 and IFN-α; versus PBS control; FIG. 2
Protocol: Six to eight-week old (˜20-22 grams) female Balb/c mice (8 mice/group) were immunized subcutaneously at multiple sites with fluorescein-labeled keyhole limpet hemocyanin (KLH) using a commercial saponin adjuvant (GPI-0100; Galenica). After assuring that anti-fluorescein antibody titers were high in all mice (as evidenced by the results of ELISA assays of serum samples of the mice), each animal was injected subcutaneously in the shoulder with 1×10^6 M109 cells (a syngeneic lung cancer cell line that expresses high levels of the folate receptor; day 0) following prior immunization with KLH-fluorescein. The immunizations with folate-fluorescein after tumor cell implantation consisted of 500, 2000, or 5000 nmol/kg of folate-fluorescein, conjugated via a gamma carboxyl-linked ethylene diamine bridge, given in 19 intraperitoneal doses at 24 hour intervals (days 1-19). Control animals were injected with phosphate buffered saline (PBS). A series of 5 daily injections (five times a week) for three weeks of 20,000 IU/day of recombinant human IL-2 were administered to all mice in order to stimulate the immune system. A series of 3 injections for three weeks of 25,000 U/day of recombinant human IFN-α were also administered to all mice. The efficacy of this immunotherapy was then evaluated by monitoring tumor volume (mm^3) using a caliper.

Nc1nc2ncc(CNc3ccc(C(=O)NC(CCC(=O)NCCNC(=S)Nc4ccc5c(c4)C(=O)OC54c5ccc(O)cc5Oc5cc(O)ccc54)C(=O)O)cc3)nc2c(=O)[nH]1 (stereo not shown) [folate-fluorescein]
growth of solid tumors (tumor volume): significantly inhibited
